Measurements taken from patent publication US6518278B1, “Carcinostatic substance for compatible administration, process of administrating same and process of rapidly inspecting same” (Debio Pharm S.A., priority 1994, dated 2003).
Entries after “also recorded” stand apart in the source; their conditions may differ. Like-named read-outs stand apart in the source and are kept apart here.

Tests used:
[1] = test system: living cells; details: dye bonded to the cell; inventor's earlier meeting article (1990); cited from earlier work
[2] = test system: living cells; test: Fluorescence dye bonded to living cells: does the cell stay alive; type: cell-based
Excerpt: As the said fluorescence dye, the above DAPI can be employed. Although the DAPI itself is known, the use for the observation of the cell division while keeping the cells alive is unknown. The present inventors have investigated such fluorescence dye as Hoechst 33258, acridine orange and acridine yellow other than the DAPI.

[3] = test system: cisplatin resistance cells (K652/CDDP); test: Extinction rate, OR 36-3 and cisplatin, cisplatin resistance cells; type: cell-based, human; details: 5 μg/ml of the cisplatin, single; resistance cells versus K 562 parent cells
Procedure: (§1) The extinction rates were measured in accordance with the same procedures of Example 2 except that K 562 parent cells (human bone marrow leukemia) and its cisplatin resistance cells (K652/CDDP) were employed in place of the human leutecyte strain cell employed in Comparative Example 1 and Example 2, and cisplatin was employed in place of the vincristin.

[4] = test system: human leutecyte strain cell (RPMI-8402); test: Extinction effect of compatible administration of l-OHP and a compatible agent on tumor cells (compatible efficiency OE); type: cell-based; details: for Compatible Effects of l-OHP and Compatible Agent, Simultaneous Administration: both added day 1
Outline: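 RPMI-8402 cells (10^6/ml, 15% fetal bovine serum) got l-OHP (5 or 1 μg/ml) with a partner agent at high or low dose (e.g. cisplatin 1 or 0.5, 5-FU 10 or 5 μg/ml; irinotecan fixed at 10 μg/ml) on the same day or staggered days 1–4 in either order. Cell kill was corrected for the untreated control. A combination index of 85–115% was scored additive, >115% synergistic.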

[5] = test system: K 562 parent cells (human bone marrow leukemia); test: Extinction rate, OR 36-3 and cisplatin, K 562 parent cells; type: cell-based; details: 2 μg/ml of the cisplatin, single
Procedure: as §1

[6] = larger dosage of compatible agent (μg/ml: cisplatin 1, 5-FU 10, irinotecane 10, adriamycin 0.05, vincristin 0.05, vindecin 0.05, etoposide 1, bleomycin 10, mitoxantrone 0.1, mitomycine 1), l-OHP 1 μg/ml (5 μg/ml with irinotecane) added day 1
[7] = larger dosage of compatible agent added day 1 (μg/ml: cisplatin 1, 5-FU 10, irinotecane 10, adriamycin 0.05, vincristin 0.05, vindecin 0.05, etoposide 1, bleomycin 10, mitoxantrone 0.1, mitomycine 1), l-OHP 1 μg/ml (5 μg/ml with irinotecane)
[8] = smaller dosage of compatible agent (μg/ml: cisplatin 0.5, 5-FU 5, irinotecane 10, adriamycin 0.01, vincristin 0.01, vindecin 0.01, etoposide 0.5, bleomycin 1, mitoxantrone 0.05, mitomycine 0.5), l-OHP 1 μg/ml added day 1
[9] = smaller dosage of compatible agent added day 1 (μg/ml: cisplatin 0.5, 5-FU 5, irinotecane 10, adriamycin 0.01, vincristin 0.01, vindecin 0.01, etoposide 0.5, bleomycin 1, mitoxantrone 0.05, mitomycine 0.5), l-OHP 1 μg/ml

Cl.Cl.N=C(N)c1ccc(-c2cc3ccc(C(=N)N)cc3[nH]2)cc1 [DAPI, 4′,6-diamidino-2-phenylindole•2HCl]
effect of fluorescence dye on living cells [1]: without extinguishing the cells

CN1CCN(c2ccc3[nH]c(-c4ccc5[nH]c(-c6ccc(O)cc6)nc5c4)nc3c2)CC1 [Hoechst 33258]
toxicity of fluorescence dye to the cell ([2]; dye bonded to living cells): toxicity is too strong to keep the cell alive

Cc1cc2cc3cc(C)c(N)cc3nc2cc1N [acridine yellow]
toxicity of fluorescence dye to the cell [2]: toxicity is too strong to keep the cell alive

N.N.[Cl][Pt][Cl] [cisplatin]
extinction rates against the parent cells and the resistance cells compared [3]: substantially the same as each other | compatible administration effect with l-OHP, summary in words ([4]; compatible administration with l-OHP): the additive effect or the synergistic effect regardless of the administration method and the dosage in almost all the cases; also recorded: synergistic effects can be obtained in all the cases when the cisplatin and the l-OHP are simultaneously administrated and the l-OHP is administrated before the cisplatin; also recorded: effect about twice the expected value is obtained in most cases when the l-OHP administration is preceded and the cisplatin is added later | Compatible Effects of l-OHP and Compatible Agent, Time Lag Administration, Addition Administration of Compatible Agent day 2 [4, 6]: • (•: Synergistic Effect) | Compatible Effects of l-OHP and Compatible Agent, Time Lag Administration, Addition Administration of Compatible Agent day 3 [4, 6]: • (•: Synergistic Effect) | Compatible Effects of l-OHP and Compatible Agent, Time Lag Administration, Addition Administration of Compatible Agent day 4 [4, 6]: • (•: Synergistic Effect) | Compatible Effects of l-OHP and Compatible Agent, Simultaneous Administration ([4]; larger dosage of compatible agent (μg/ml: cisplatin 1, 5-FU 10, irinotecane 10, adriamycin 0.05, vincristin 0.05, vindecin 0.05, etoposide 1, bleomycin 10, mitoxantrone 0.1, mitomycine 1), l-OHP 1 μg/ml (5 μg/ml with irinotecane)): • (•: Synergistic Effect) | Compatible Effects of l-OHP and Compatible Agent, Time Lag Administration, Addition Administration of l-OHP day 2 [4, 7]: • (•: Synergistic Effect) | Compatible Effects of l-OHP and Compatible Agent, Time Lag Administration, Addition Administration of l-OHP day 3 [4, 7]: ◯ (◯: Additive Effect) | Compatible Effects of l-OHP and Compatible Agent, Time Lag Administration, Addition Administration of l-OHP day 4 [4, 7]: ◯ (◯: Additive Effect) | Compatible Effects of l-OHP and Compatible Agent, Time Lag Administration, Addition Administration of Compatible Agent day 2 [4, 8]: • (•: Synergistic Effect) | Compatible Effects of l-OHP and Compatible Agent, Time Lag Administration, Addition Administration of Compatible Agent day 3 [4, 8]: • (•: Synergistic Effect) | Compatible Effects of l-OHP and Compatible Agent, Time Lag Administration, Addition Administration of Compatible Agent day 4 [4, 8]: • (•: Synergistic Effect) | Compatible Effects of l-OHP and Compatible Agent, Simultaneous Administration ([4]; smaller dosage of compatible agent (μg/ml: cisplatin 0.5, 5-FU 5, irinotecane 10, adriamycin 0.01, vincristin 0.01, vindecin 0.01, etoposide 0.5, bleomycin 1, mitoxantrone 0.05, mitomycine 0.5), l-OHP 1 μg/ml): ◯ (◯: Additive Effect) | Compatible Effects of l-OHP and Compatible Agent, Time Lag Administration, Addition Administration of l-OHP day 2 [4, 9]: Δ (Δ: Below Additive Effect) | Compatible Effects of l-OHP and Compatible Agent, Time Lag Administration, Addition Administration of l-OHP day 3 [4, 9]: Δ (Δ: Below Additive Effect) | Compatible Effects of l-OHP and Compatible Agent, Time Lag Administration, Addition Administration of l-OHP day 4 [4, 9]: Δ (Δ: Below Additive Effect) | extinction rate of the parent cells relative to that of the resistance cells [5]: about twice
